The text below walks through data of US20210038730A1, “PEPTIDE NANOFIBERS” (UNIVERSITY OF PORTSMOUTH HIGHER EDUCATION CORPORATION, priority 2018, published 2021).

As usually defined, the koff is the rate constant with which the complex falls apart. Usually AUC(0-t) stands for the area under the concentration-time curve up to a stated or last time point. Read a low AUC(0-t) as less exposure. What is called half-life is the time needed for the level to fall by half in the phase considered. Low readings indicate rapid decline, high ones slow decline. For orientation: solubility means how much of the substance goes into solution per volume. In general, Papp A→B refers to the apparent permeability from the apical to the basolateral side of a cell layer.

Converted amounts (≈) assume the structure as drawn. Like-named read-outs stand apart in the source and are kept apart here.

For data set [1], the target named is T1, GnRH-R expressed on glioblastoma cells (Homo sapiens, UniProt P30968).
T1 construct: GnRH peptides to the GnRH-R expressed on glioblastoma cells; endogenous in cells; host or cells: U-87 MG, UP-007, UP-029, SEBTA-023 glioblastoma cells (living)
T1 sequence (P30968 1-328): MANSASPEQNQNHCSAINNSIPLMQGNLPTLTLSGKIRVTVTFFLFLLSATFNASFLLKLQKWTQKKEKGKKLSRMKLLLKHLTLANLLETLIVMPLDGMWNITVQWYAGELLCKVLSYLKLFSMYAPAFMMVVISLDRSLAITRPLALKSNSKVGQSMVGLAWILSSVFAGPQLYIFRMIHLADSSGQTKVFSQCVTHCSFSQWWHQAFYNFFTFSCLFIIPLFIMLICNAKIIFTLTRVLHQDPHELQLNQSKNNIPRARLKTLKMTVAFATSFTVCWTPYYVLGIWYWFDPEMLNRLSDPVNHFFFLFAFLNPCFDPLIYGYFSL
Kind of data set: Receptor binding by single molecule force spectroscopy. The note with it: for koff: read-out: Dissociation Rate (Koff). How it is done:
The binding of the GnRH analogues to GnRH-R was assessed using single molecule force spectroscopy (SMFS) and Topography and Recognition (TREC) imaging based on AFM. AFM tips were functionalised with Glu-GnRH, goserelin acetate and […] as a monomer and nanofibers using a previously described method ^9, 10. Silicon nitride (6-20 pN/nm spring constant, Bruker, Mass., USA) and magnetically coated […] tips (Keysight, Calif., USA) were used for SMFS and TREC studies, respectively. […] Subsequently, acetal groups were converted into aldehyde groups by immersing the tips in a 1% (w/v) citric acid solution for 10 minutes. […] Following an incubation of 2 hours, the free aldehyde groups were inactivated by ethanolamine for 10 minutes. AFM tips were washed with PBS three times and stored at 4° C. […] Loading rates were calculated by multiplying the pulling velocity (v) with the effective spring constant (keff). Spring constants were determined by the thermal-noise method. The force-distance curves were acquired using PicoView 1.12 (Agilent Technologies, Inc., California, USA) and analysed in Matlab 8.1 software (MathWorks, Massachusetts, USA). […] Amplitude-distance curves were collected on a glass coverslip to adjust the free oscillation amplitude, and to determine the optimal amplitude reduction value for driving the feedback loop during the imaging. Free amplitude of cantilever oscillation was 30 nm and the excitation frequency was set to 9 kHz.

In data set [2] the target is T2, GnRH-R on U-87 MG cells (Homo sapiens, UniProt P30968).
T2 construct: endogenous in cells; host or cells: U-87 MG
T2 sequence (P30968 1-328): T1 sequence (P30968 1-328)
Kind of data set: SMFS blocking experiments with free GnRH-R ligands. Type of data set: binding. How it is done: Blocking experiments were performed with different GnRH-R ligands (anti-GnRH-R antibody, Glu-GnRH, goserelin acetate, and TPGnRH). U-87 MG cells were analysed with tips functionalised with TPGnRH nanofibers and then the free ligands were added at a final concentration of 1 μg mL^−1 (anti-GnRH-R antibody) or 50 μg mL^−1 (Glu-GnRH, goserelin acetate and TPGnRH). U-87 MG cells treated with ligands were incubated for, at least, one hour at room temperature, and then the same cells were analysed with the same TPGnRH-functionalised tip at the same location in the cell.

The nature of data set [3]: Enzymatic stability in rat plasma. The note with it: 50% (v/v) rat plasma.
Description: (§1) Fresh blood, obtained from adult male Wistar rats, was collected in sterile the 170 I.U. lithium heparin-coated tubes (Vacutainer, BD Bioscience, UK). Blood was centrifuged immediately at 2,000 g for 15 minutes (4° C.) and supernatant was collected and diluted to 50% (v/v) with PBS. Livers and brains were obtained from adult male Wistar rats, and the tissues were blotted to dryness, weighed, sliced into pieces, and homogenised with ice-cold PBS (in 2 mL of buffer g^−1 of tissue) using the glass homogeniser. Then, tissue homogenates were centrifuged at 4,300 g for 1 hour (4° C.) and the supernatants collected. Glioblastoma cell homogenates were prepared using U-87 MG cells. Cells were cultured in Eagle's Minimum Essential Medium (EMEM) supplemented with 10% (v/v) heat-inactivated fetal bovine serum (FBS), 1% (v/v) of non-essential amino acids (NEAA) and 1 mM of sodium pyruvate in T75 flasks with a surface area of 75 cm^2 and maintained in a humidified atmosphere of 5% CO2 at 37° C. Breast cancer cell homogenates were prepared using MDA-MB-231 cells. Cells were cultured in Dulbecco's Modified Eagle Medium (DMEM) supplemented with high levels of glucose (4.5 g/L), 10% (v/v) heat-inactivated fetal bovine serum (FBS), 1% (v/v) of non-essential amino acids (NEAA) and penicillin and streptomycin (500 units/mL) in T75 flasks with a surface area of 75 cm^2 and maintained in a humidified atmosphere of 5% CO2 at 37° C. Media was changed for both cell lines every 3 to 4 days. After reaching confluence, cells were washed twice with Hank's Balanced Salt Solution (HBSS) and incubated with ˜2 mL of TrypLE Enzyme at 37° C. for ˜3 minutes. Then, complete media were added, and cells were centrifuged at 1,000 rpm for 5 minutes in C-28A centrifuge (Boeco, Germany). U-87 MG or MDA-MB-231 cells (˜10×10^6 cells mL^−1) were re-suspended in ice-cold PBS, and homogenised with a 2×5 second pulses with the probe sonicator (UP200S Ultrasonic processor, SciMed, 200 watts, amplitude of 60%). Cell debris were removed by centrifugation at 2,000 rpm for 5 minutes (Jouan B4i, Thermo Scientific, Paisley, UK). Supernatant was collected and stored at −80° C. Total protein concentration in the homogenates was determined using the Bradford assay with bovine serum albumin as a standard. Diluted plasma, tissue or cell homogenates were pre-warmed during ˜30 minutes at 37° C. Peptide stock solutions (Glu-GnRH, goserelin acetate and TPGnRH, 5 mM in PBS, 500 μL) were prepared and added to the homogenate solutions (120 μL). […] Samples were vortexed for 15 minutes, centrifuged for 15 minutes at 12,000 rpm, and the supernatants were collected and analysed by RP-HPLC.
A short description of data set [4]: Enzymatic stability in rat brain homogenates. The following applies: 50% (v/v) rat brain homogenates.
Description: as §1
Data set [5] is described as follows: Enzymatic stability in rat liver homogenates. The note with it: 50% (v/v) rat liver homogenates; analyte in brackets of label.
Description: (§2) Fresh blood, obtained from adult male Wistar rats, was collected in sterile the 170 I.U. lithium heparin-coated tubes (Vacutainer, BD Bioscience, UK). Blood was centrifuged immediately at 2,000 g for 15 minutes (4° C.) and supernatant was collected and diluted to 50% (v/v) with PBS. Livers and brains were obtained from adult male Wistar rats, and the tissues were blotted to dryness, weighed, sliced into pieces, and homogenised with ice-cold PBS (in 2 mL of buffer g^−1 of tissue) using the glass homogeniser. Then, tissue homogenates were centrifuged at 4,300 g for 1 hour (4° C.) and the supernatants collected. Glioblastoma cell homogenates were prepared using U-87 MG cells. Cells were cultured in Eagle's Minimum Essential Medium (EMEM) supplemented with 10% (v/v) heat-inactivated fetal bovine serum (FBS), 1% (v/v) of non-essential amino acids (NEAA) and 1 mM of sodium pyruvate in T75 flasks with a surface area of 75 cm^2 and maintained in a humidified atmosphere of 5% CO2 at 37° C. Breast cancer cell homogenates were prepared using MDA-MB-231 cells. Cells were cultured in Dulbecco's Modified Eagle Medium (DMEM) supplemented with high levels of glucose (4.5 g/L), 10% (v/v) heat-inactivated fetal bovine serum (FBS), 1% (v/v) of non-essential amino acids (NEAA) and penicillin and streptomycin (500 units/mL) in T75 flasks with a surface area of 75 cm^2 and maintained in a humidified atmosphere of 5% CO2 at 37° C. Media was changed for both cell lines every 3 to 4 days. After reaching confluence, cells were washed twice with Hank's Balanced Salt Solution (HBSS) and incubated with ˜2 mL of TrypLE Enzyme at 37° C. for ˜3 minutes. Then, complete media were added, and cells were centrifuged at 1,000 rpm for 5 minutes in C-28A centrifuge (Boeco, Germany). U-87 MG or MDA-MB-231 cells (˜10×10^6 cells mL^−1) were re-suspended in ice-cold PBS, and homogenised with a 2×5 second pulses with the probe sonicator (UP200S Ultrasonic processor, SciMed, 200 watts, amplitude of 60%). Cell debris were removed by centrifugation at 2,000 rpm for 5 minutes (Jouan B4i, Thermo Scientific, Paisley, UK). Supernatant was collected and stored at −80° C. Total protein concentration in the homogenates was determined using the Bradford assay with bovine serum albumin as a standard. Diluted plasma, tissue or cell homogenates were pre-warmed during ˜30 minutes at 37° C. Peptide stock solutions (Glu-GnRH, goserelin acetate and TPGnRH, 5 mM in PBS, 500 μL) were prepared and added to the homogenate solutions (120 μL). PAX-loaded nanofibers prepared at a ratio of 1:7.36 [PAX:TPGnRH consisting of 3 μmol (2.56 mg mL^−1) of PAX, 22.02 μmol (31.46 mg mL^−1) of TPGnRH], as previously described, and further diluted in PBS to achieve a concentration of 5 mM of TPGnRH and 500 nM of PAX (120 μL) were added to the homogenates. At various time intervals, an aliquot was collected (80 μL) and added to ice-cold ACN (80 μL) to quench the enzymatic activity. Samples were stored at −80° C. for at least 3 hours to maximise protein precipitation. Samples were vortexed for 15 minutes, centrifuged for 15 minutes at 12,000 rpm, and the supernatants were collected and analysed by RP-HPLC.
The nature of data set [6]: Enzymatic stability in U-87 MG cell homogenates.
Description: Fresh blood, obtained from adult male Wistar rats, was collected in sterile the 170 I.U. lithium heparin-coated tubes (Vacutainer, BD Bioscience, UK). Blood was centrifuged immediately at 2,000 g for 15 minutes (4° C.) and supernatant was collected and diluted to 50% (v/v) with PBS. Livers and brains were obtained from adult male Wistar rats, and the tissues were blotted to dryness, weighed, sliced into pieces, and homogenised with ice-cold PBS (in 2 mL of buffer g^−1 of tissue) using the glass homogeniser. Then, tissue homogenates were centrifuged at 4,300 g for 1 hour (4° C.) and the supernatants collected. Glioblastoma cell homogenates were prepared using U-87 MG cells. Cells were cultured in Eagle's Minimum Essential Medium (EMEM) supplemented with 10% (v/v) heat-inactivated fetal bovine serum (FBS), 1% (v/v) of non-essential amino acids (NEAA) and 1 mM of sodium pyruvate in T75 flasks with a surface area of 75 cm^2 and maintained in a humidified atmosphere of 5% CO2 at 37° C. Breast cancer cell homogenates were prepared using MDA-MB-231 cells. Cells were cultured in Dulbecco's Modified Eagle Medium (DMEM) supplemented with high levels of glucose (4.5 g/L), 10% (v/v) heat-inactivated fetal bovine serum (FBS), 1% (v/v) of non-essential amino acids (NEAA) and penicillin and streptomycin (500 units/mL) in T75 flasks with a surface area of 75 cm^2 and maintained in a humidified atmosphere of 5% CO2 at 37° C. Media was changed for both cell lines every 3 to 4 days. After reaching confluence, cells were washed twice with Hank's Balanced Salt Solution (HBSS) and incubated with ˜2 mL of TrypLE Enzyme at 37° C. for ˜3 minutes. Then, complete media were added, and cells were centrifuged at 1,000 rpm for 5 minutes in C-28A centrifuge (Boeco, Germany). […] Total protein concentration in the homogenates was determined using the Bradford assay with bovine serum albumin as a standard. […] Samples were vortexed for 15 minutes, centrifuged for 15 minutes at 12,000 rpm, and the supernatants were collected and analysed by RP-HPLC.
The nature of data set [7]: Enzymatic stability in MDA-MB-231 cell homogenates.
Description: as §2
A short description of data set [8]: physchem. How it is done: Paclitaxel (PAX)-loaded TPGnRH nanofibers were prepared by adding a PAX solution (250 μL, 2.562 mg mL^−1 in isopropyl alcohol, IPA) to the dry peptide to achieve a molar ratio of 1:1, 1:1.95, 1:3.68 or 1:7.36 of PAX:TPGnRH. After vortexing, bath and probe sonication (200 watts, amplitude 60%, UP200S Ultrasonic, SciMed, Stockport, UK) for 10 minutes, the IPA was removed by rotary evaporation. The film was re-hydrated in acetate buffer (50 mM, pH 4.5), and the final formulation was centrifuged for 5 minutes at 900 rpm to remove undissolved PAX. Supernatant was collected and the amount of PAX and TPGnRH was quantified by reverse phase-HPLC. […] Morphology of PAX-loaded formulations was evaluated using TEM and AFM, as described above.

Data set [9] can be described thus: in vitro. The note with it: human. The method, then: In order to test the permeability of TPGnRH nanofibers across the blood-brain barrier (BBB), a static contact co-culture was set up according to a previous method^7. Briefly, human astrocytes (SC-1800, 25,000 cells/well) were seeded on the abluminal side of a 24-well plate Transwell polycarbonate membrane (3 μm of a pore size, Corning Star, Deeside, UK) coated with human fibronectin. Cells were allowed to attach for 3 days, and then human brain microvascular endothelial cells (hCMEC/D3, 75,000 cells/well) were seeded on the luminal side of the Transwell and co-cultured with astrocytes for five days with a daily change of the media. Transendothelial resistance was measured using EVOM voltohmmeter (World Precision Instruments, Berlin, Germany).
Transwells were washed with HBSS and immersed into HBSS (600 μL in abluminal side). […] Samples (100 μL) were collected from the abluminal side at specific time-points, and fresh HBSS (100 μL) was used to replace the volume from the abluminal compartments. […] PAX was analysed using reverse phase-HPLC with the gradient method described on Table 2. TR-TPGnRH was quantified in POLARstar Omega plate reader spectrophotometer with λexc 596 and λem 615 nm. The permeability coefficient (Papp) was determined using the equation: […]
ΔQr, is the flux of drug along time (μg mL^−1), Vr is the volume of the abluminal side (mL), A is the area of the Transwell membrane, C0 is the concentration of drug in the luminal side, and 60, the converser factor from minutes to seconds^8.

The nature of data set [10]: Release from 3D printed cellulose-sodium alginate bioinks. The note with it: PBS. Type of data set: physicochemical. The method, then:
Peptide nanofibers were embedded in cellulose nanocrystals and sodium alginate hydrogels. Cellulose nanocrystals were synthesised by sulphuric acid degradation (45% w/v, 150 mls) of cellulose (15 g, Western Hemlock) at 50° C. over 90 minutes under stirring. Cold-deionised water was used to quench reaction and acid was removed by centrifugation (4,000 rpm, 10 minutes). Cellulose nanocrystals were dialysed (12-14 kDa for cytochrome C, Medicell Ltd) over 5 L with 6 changes over 24 hours. Resulting suspension was probe sonicated (400 watt, 23% amplitude, 10 minutes) in 50 mLs aliquots. The resulting suspension was centrifuged (4,000 rpm, 10 minutes) and supernatant was stored in the refrigerator. Cellulose nanocrystals (CNCs, 4.5% w/w, 2 g) were loaded onto a syringe attached to a three-way valve, where a syringe loaded sodium alginate (6% w/w in 4.6% glucose, 1.7 g). The CNCs were injected in the sodium alginate syringe and mixed 10 times (in each direction). Sample was collected in one syringe and a new syringe containing calcium chloride (0.1M, 0.9 mL). Sample was pushed into calcium chloride and mixed 5 times (in each direction) prior collecting the gel in one syringe and loading in cartridges. Peptide nanofibers (5 mg) were dispersed in 0.9 mL of 0.1M calcium chloride and mixed as above when needed. Release of paclitaxel loaded and TPGnRH gels in PBS (1×, 7.4, 6 mLs) was quantified as per HPLC method described previously (Example 7, Table 2). After an initial burst release, a controlled release profile is observed with gradual slow release over days. Resulting inks can be utilised for the production of nanofiber loaded implants for tumour patients.

Where [11] appears, read: after pre-incubation with the free ligand named as label (antibody 1 μg mL^−1, peptides 50 μg mL^−1).
Setting [12] is: before addition of the free ligand named as label (no pre-incubation).
The mark [13] stands for this setting: human, MDA-MB-231 breast cancer cell homogenate.

Consider `CC(C)C[C@H](NC(=O)CNC(=O)[C@H](Cc1ccc(O)cc1)NC(=O)[C@H](CO)NC(=O)[C@H](Cc1c[nH]c2ccccc12)NC(=O)[C@H](Cc1cnc[nH]1)NC(=O)[C@@H](N)CCC(=O)O)C(=O)N[C@@H](CCCNC(=N)N)C(=O)N1CCC[C@H]1C(=O)NCC(N)=O` [Glu-GnRH, Glu-His-Trp-Ser^4-Tyr^5-Gly^6-Leu-Arg-Pro-Gly-NH2, reference compound], for which the “Binding Force” value in data set [1] (SEBTA-023) was 40.3 ± 11.70 pN; in data set [1] (U-87 MG) it was 25.88 ± 0.94 pN; in data set [1] (UP-007), 38.20 ± 9.16 pN; in data set [1] (UP-029), 45.6 ± 4.64 pN. In addition, the “Binding Probability” value in [1] (SEBTA-023) is 4.93 ± 0.91%; in data set [1] (U-87 MG), 13.3 ± 1.91%; in data set [1] (UP-007) it was 12.84 ± 4.32%; in data set [1] (UP-029), 6.93 ± 2.96%. In addition, the koff in data set [1] (SEBTA-023) worked out at 1.22 ± 0.31 s⁻¹; in data set [1] (U-87 MG), 1.29 ± 0.34 s⁻¹; in data set [1] (UP-007), 1.52 ± 0.2 s⁻¹; in [1] (UP-029), 1.66 ± 0.25 s⁻¹. The “Binding Probability of TPGnRH nanofiber tip to U-87 MG cells” value in data set [2] (setting [11]) amounted to 3.4%; in data set [2] (setting [12]), 12.6%. In addition, the Plateau was determined as 3.952 µg/mL in data set [3]; 3.952 µg/mL in data set [4]; 16.58 µg/mL in data set [5]; 3.952 µg/mL in data set [6]; 552.9 µg/mL in data set [7] (MDA-MB-231 cell homogenates). Also, the k in data set [3] (analyte in brackets of label) came to 0.04021 min⁻¹; in data set [4] (analyte in brackets of label), 0.1928 min⁻¹; in [6] (analyte in brackets of label) it was 0.1928 min⁻¹; in data set [7] (MDA-MB-231 cell homogenates), 0.1551 min⁻¹. The T1/2α in data set [5] worked out at 0.67 ± 0.03 min. For the same molecule, the kα in data set [5] came to 1.088 min⁻¹. In addition, in [7] (setting [13]), the AUC(0-t) at 4.03 mM was 20000 µg·h/mL. In [7] (setting [13]), the C0 at 4.03 mM was found to be 1420 µg/mL. The half-life at 4.03 mM in data set [7] (setting [13]) turned out to be 4.47 ± 1.27 min.

`CC(=O)O[C@H]1C(=O)[C@@]2(C)[C@H]([C@H](OC(=O)c3ccccc3)[C@]3(O)C[C@H](OC(=O)[C@H](O)[C@@H](NC(=O)c4ccccc4)c4ccccc4)C(C)=C1C3(C)C)[C@]1(OC(C)=O)CO[C@@H]1C[C@@H]2O` [PAX, Paclitaxel, reference compound]: the solubility amounted to 0.92 ± 1.35 µg/mL (≈ 1.08 µM) in data set [8] (aqueous buffer) and 29.3 ± 3.63 µg/mL (≈ 34.3 µM) in data set [8] (aqueous with cosolvent or surfactant or cyclodextrin). The Papp A→B at 50 μg mL^−1 in data set [9] was 0.19 ×10⁻⁶ cm/s. The “% release from 3D printed bioink” value came to 0% in data set [10] (0 minutes); 13.1 ± 15.6% in [10] (1 minutes); 13.7 ± 5.6% in data set [10] (5 minutes); 18.0 ± 10.6% in data set [10] (10 minutes); 10.7 ± 2.3% in [10] (15 minutes); 11.8 ± 5.2% in data set [10] (30 minutes). The “% release from 3D printed bioink” value amounted to 13.7 ± 8.4% in data set [10] (45 minutes); 20.7 ± 9.6% in [10] (60 minutes); 24.6 ± 5.1% in [10] (90 minutes); 26.9 ± 9.4% in data set [10] (120 minutes); 19.0 ± 10.9% in data set [10] (240 minutes); 24.8 ± 7.3% in [10] (360 minutes). Moreover, the figures for the “% release from 3D printed bioink” value in data set [10] (1110 minutes), in data set [10] (1440 minutes) and in data set [10] (2760 minutes) were 28.0 ± 11.4%, 30.2 ± 9.8% and 37.1 ± 7.2%, respectively.

Take `CC(C)C[C@H](NC(=O)[C@@H](COC(C)(C)C)NC(=O)[C@H](Cc1ccc(O)cc1)NC(=O)[C@H](CO)NC(=O)[C@H](Cc1c[nH]c2ccccc12)NC(=O)[C@H](Cc1cnc[nH]1)NC(=O)[C@@H]1CCC(=O)N1)C(=O)N[C@@H](CCCNC(=N)N)C(=O)N1CCC[C@H]1C(=O)NNC(N)=O` [Goserelin, goserelin acetate, reference compound]: the “Binding Force” value in data set [1] (U-87 MG) was determined as 29.88 ± 2.34 pN; in data set [1] (UP-007) it was 34.00 ± 15.5 pN. Further, the “Binding Probability” value in data set [1] (U-87 MG) was determined as 4.4 ± 0.94%; in data set [1] (UP-007), 7.48 ± 0.76%. For the same molecule, the results for the koff in [1] (U-87 MG) and in data set [1] (UP-007) were 0.68 ± 0.08 s⁻¹ and 1.54 ± 0.12 s⁻¹, respectively. Further, the “Binding Probability of TPGnRH nanofiber tip to U-87 MG cells” value in data set [2] (setting [11]) came to 3.8%; in data set [2] (setting [12]) it was 16.2%.
